Results from ChEMBL document CHEMBL1777719, “Norcantharidin analogues with nematocidal activity in Haemonchus contortus” (Bioorg Med Chem Lett, 2011).
The source made the active and inactive calls. The calls are words filed in the database; no cut-off is given here.

Key:
[1] = Cytotoxicity against human HT-29 cells after 72 hrs by MTT assay; type: cell-based
[2] = Cytotoxicity against human SW480 cells after 72 hrs by MTT assay; type: cell-based
[3] = Cytotoxicity against human MCF7 cells after 72 hrs by MTT assay; type: cell-based
[4] = Cytotoxicity against human A2780 cells after 72 hrs by MTT assay; type: cell-based
[5] = Cytotoxicity against human H460 cells after 72 hrs by MTT assay; type: cell-based; conditions: NCI-H460 cells
[6] = Cytotoxicity against human A431 cells after 72 hrs by MTT assay; type: cell-based, A-431
[7] = Cytotoxicity against human DU145 cells after 72 hrs by MTT assay; type: cell-based, DU-145
[8] = Cytotoxicity against human BE(2)-C cells after 72 hrs by MTT assay; type: cell-based
[9] = Cytotoxicity against human SJ-G2 cells after 72 hrs by MTT assay; type: cell-based
Haemonchus contortus = experiment: Nematocidal activity against Haemonchus contortus Haecon 5 strain isolated from helminth-free Merino weaner sheep at 12.5 to 100 uM after 6 days by larval development assay; type: functional, organism-based

| SMILES | GI50 at 72 h [1] | GI50 at 72 h [2] | GI50 at 72 h [3] | GI50 at 72 h [4] | GI50 at 72 h [5] | GI50 at 72 h [6] | GI50 at 72 h [7] | GI50 at 72 h [8] | GI50 at 72 h [9] | inhibition (Haemonchus contortus) |
| --- | --- | --- | --- | --- | --- | --- | --- | --- | --- | --- |
| O=C(O)CCCNC(=O)C1C(C(=O)O)[C@@H]2CC[C@H]1O2 (stereo partly specified) | 10 µM | 10 µM | 10 µM | 10 µM | 10 µM | 10 µM | 10 µM | 10 µM | 10 µM | inactive |
| O=C(O)[C@H](Cc1ccc(O)cc1)N1C(=O)[C@@H]2[C@H](C1=O)[C@H]1CC[C@@H]2O1 | > 75 µM | > 75 µM | > 75 µM | > 75 µM | > 75 µM | > 75 µM | > 75 µM | > 75 µM | > 75 µM | – |
| O=C(O)C1C(C(=O)NCCc2ccccc2)[C@H]2CC[C@@H]1O2 (stereo partly specified) | 10 µM | 10 µM | 10 µM | 10 µM | 10 µM | 10 µM | 10 µM | 10 µM | 10 µM | inactive |
| CCCCCCCCNC(=O)C1C(C(=O)O)[C@@H]2CC[C@H]1O2 (stereo partly specified) | 10 µM | 10 µM | 10 µM | 10 µM | 10 µM | 10 µM | 10 µM | 10 µM | 10 µM | inactive |
| CN(C)CCOc1ccc(N2C(=O)[C@@H]3[C@H](C2=O)[C@H]2CC[C@@H]3O2)cc1 | > 75 µM | > 75 µM | > 75 µM | > 75 µM | > 75 µM | > 75 µM | > 75 µM | > 75 µM | > 75 µM | – |
| O=C(O)C1C(C(=O)Nc2ccccc2)[C@H]2CC[C@@H]1O2 (stereo partly specified) | 10 µM | 10 µM | 10 µM | 10 µM | 10 µM | 10 µM | 10 µM | 10 µM | 10 µM | inactive |
| O=C(O)CCCCCCCNC(=O)C1C(C(=O)O)[C@@H]2CC[C@H]1O2 (stereo partly specified) | 10 µM | 10 µM | 10 µM | 10 µM | 10 µM | 10 µM | 10 µM | 10 µM | 10 µM | inactive |
| COC(=O)CNC(=O)[C@H]1N(CCCCCO)C(=O)C2=C(C)[C@H]3C=C[C@]21O3 | – | – | – | – | – | – | – | – | – | inactive |
| CCCNC(=O)C1C(C(=O)O)[C@@H]2CC[C@H]1O2 (stereo partly specified) | 10 µM | 10 µM | 10 µM | 10 µM | 10 µM | 10 µM | 10 µM | 10 µM | 10 µM | inactive |
| CN(C)CCOc1ccccc1N1C(=O)[C@@H]2[C@H](C1=O)[C@H]1CC[C@@H]2O1 | > 75 µM | > 75 µM | > 75 µM | > 75 µM | > 75 µM | > 75 µM | > 75 µM | > 75 µM | > 75 µM | – |
| Cc1cc(C)c(NC(=O)C2C(C(=O)O)[C@@H]3CC[C@H]2O3)c(C)c1 (stereo partly specified) | 10 µM | 10 µM | 10 µM | 10 µM | 10 µM | 10 µM | 10 µM | 10 µM | 10 µM | inactive |
| O=C(O)C1C(C(=O)Nc2ccc(O)cc2)[C@H]2CC[C@@H]1O2 (stereo partly specified) | 10 µM | 10 µM | 10 µM | 10 µM | 10 µM | 10 µM | 10 µM | 10 µM | 10 µM | inactive |
| CCCCCNC(=O)[C@H]1N(CCCN(C)C)C(=O)C2=C(CCCC)[C@H]3C=C[C@]21O3 | – | – | – | – | – | – | – | – | – | inactive |
| CCCCCCCCN1C(=O)C2=C(C)[C@H]3C=C[C@@]2(O3)[C@H]1C(=O)NCC(=O)OCC | – | – | – | – | – | – | – | – | – | inactive |
| CCCCCNC(=O)[C@@H]1N(CCCN(C)C)C(=O)C2=C(CCCC)[C@H]3C=C[C@]21O3 | – | – | – | – | – | – | – | – | – | inactive |
| CCc1ccccc1NC(=O)C1C(C(=O)O)[C@@H]2CC[C@H]1O2 (stereo partly specified) | 10 µM | 10 µM | 10 µM | 10 µM | 10 µM | 10 µM | 10 µM | 10 µM | 10 µM | inactive |
| CCCCCCCCN1C(=O)C2=C(C)[C@H]3C=C[C@@]2(O3)[C@@H]1C(=O)NCC(=O)OCC | – | – | – | – | – | – | – | – | – | inactive |

| SMILES | GI50 at 72 h [1] | GI50 at 72 h [2] | GI50 at 72 h [3] | GI50 at 72 h [4] | GI50 at 72 h [5] | GI50 at 72 h [6] | GI50 at 72 h [7] | GI50 at 72 h [8] | GI50 at 72 h [9] | inhibition (Haemonchus contortus) |
| --- | --- | --- | --- | --- | --- | --- | --- | --- | --- | --- |
| CCCCCNC(=O)[C@@H]1N(Cc2ccccc2)C(=O)C2=C(C)[C@H]3C=C[C@]21O3 | – | – | – | – | – | – | – | – | – | inactive |
| C=CCNC(=O)C1C(C(=O)O)[C@@H]2CC[C@H]1O2 (stereo partly specified) | 10 µM | 10 µM | 10 µM | 10 µM | 10 µM | 10 µM | 10 µM | 10 µM | 10 µM | inactive |
| CCCCCCCCCCCCN1C(=O)[C@@H]2[C@H](C1=O)[C@H]1CC[C@@H]2O1 | – | – | – | – | – | – | – | – | – | inactive |
| COC(=O)CNC(=O)[C@@H]1N(CCCCCO)C(=O)C2=C(C)[C@H]3C=C[C@]21O3 | – | – | – | – | – | – | – | – | – | inactive |
| CCOC(=O)c1cn[nH]c1NC(=O)C1C(C(=O)O)[C@@H]2CC[C@H]1O2 (stereo partly specified) | 10 µM | 10 µM | 10 µM | 10 µM | 10 µM | 10 µM | 10 µM | 10 µM | 10 µM | inactive |
| O=C(O)C1C(C(=O)Nc2ccc(CO)cc2)[C@H]2CC[C@@H]1O2 (stereo partly specified) | 10 µM | 10 µM | 10 µM | 10 µM | 10 µM | 10 µM | 10 µM | 10 µM | 10 µM | inactive |
| O=C(O)c1ccc(NC(=O)C2C(C(=O)O)[C@@H]3CC[C@H]2O3)cc1Cl (stereo partly specified) | 10 µM | 10 µM | 10 µM | 10 µM | 10 µM | 10 µM | 10 µM | 10 µM | 10 µM | inactive |
| CCCCNC(=O)C1C(C(=O)O)[C@@H]2CC[C@H]1O2 (stereo partly specified) | 10 µM | 10 µM | 10 µM | 10 µM | 10 µM | 10 µM | 10 µM | 10 µM | 10 µM | inactive |
| CCCCCNC(=O)[C@H]1N(Cc2ccccc2)C(=O)C2=C(C)[C@H]3C=C[C@]21O3 | – | – | – | – | – | – | – | – | – | inactive |
| C/C(=N/Nc1ccccc1)c1ccccc1NC(=O)C1C(C(=O)O)[C@@H]2CC[C@H]1O2 (stereo partly specified) | 10 µM | 10 µM | 10 µM | 10 µM | 10 µM | 10 µM | 10 µM | 10 µM | 10 µM | inactive |
| CCCCCCCCCCCCCCN1C(=O)[C@@H]2[C@H](C1=O)[C@H]1CC[C@@H]2O1 | – | – | – | – | – | – | – | – | – | inactive |
| O=C1[C@@H]2[C@H](C(=O)N1c1ncccc1OCc1ccccc1)[C@H]1CC[C@@H]2O1 | > 75 µM | > 75 µM | > 75 µM | > 75 µM | > 75 µM | > 75 µM | > 75 µM | > 75 µM | > 75 µM | – |
| CCCCCCCCCCCCCCCCCCN1C(=O)[C@@H]2[C@H](C1=O)[C@H]1CC[C@@H]2O1 | – | – | – | – | – | – | – | – | – | inactive |
| CCCCCCCCCCNC(=O)C1C(C(=O)O)[C@@H]2CC[C@H]1O2 (stereo partly specified) | 10 µM | 10 µM | 10 µM | 10 µM | 10 µM | 10 µM | 10 µM | 10 µM | 10 µM | inactive |
| O=C1[C@@H]2[C@H](C(=O)N1CCOP(=O)(OCC(Cl)(Cl)Cl)OCC(Cl)(Cl)Cl)[C@H]1CC[C@@H]2O1 | > 75 µM | > 75 µM | > 75 µM | > 75 µM | > 75 µM | > 75 µM | > 75 µM | > 75 µM | > 75 µM | – |
| O=C(O)C1C(C(=O)NCCCc2ccccc2)[C@H]2CC[C@@H]1O2 (stereo partly specified) | 10 µM | 10 µM | 10 µM | 10 µM | 10 µM | 10 µM | 10 µM | 10 µM | 10 µM | inactive |
| O=C(O)C1C(C(=O)Nc2ccc(Br)cc2)[C@H]2CC[C@@H]1O2 (stereo partly specified) | 10 µM | 10 µM | 10 µM | 10 µM | 10 µM | 10 µM | 10 µM | 10 µM | 10 µM | inactive |
